Experimental data: patent US7993687B2, “Compositions and methods for management of diabetes” (priority 2006, dated 2011)

How the values were obtained:
Type in all cases: cell-based, rat
[1] = system: p42/44 MAPK (Thr202/Tyr204); assay: Western blot of MAPK phosphorylation in H4IIE cells; settings: for effect of the inhibitor on insulin- and BWE-stimulated phosphorylation of MAPK: preincubation with inhibitor, then insulin or BWE for 6 minutes; for p42/44 P-MAPK (Thr202/Tyr204) phosphorylation, stimulation (fold) relative to the control / phosphorylation of MAPK, stimulation (fold) relative to the control (Table 6): 6 min, one experiment
Protocol: Tissue culture media, antibiotics, fetal bovine serum (FBS) and Nunc tissue culture plates were purchased from Invitrogen Canada Inc. (Burlington, Ontario, Canada, L7P 1A1). Insulin (Sigma-Aldrich Canada Ltd., Oakville, Ontario, Canada, L6H 6J8) was dissolved in water and added directly to cells at a concentration of 250 nM unless otherwise indicated. The BWE was prepared and analyzed as described in Example 1. Two μL of the BWE were added directly to cells unless otherwise indicated. […] Myo-inositol (Sigma-Aldrich Canada Ltd.) and D-chiro-inositol (Industrial Research Ltd., Wellington, New Zealand) were dissolved in water at an equal concentration to the amounts present in the BWE (Table 3) and 2 μL of each solution (0.1% v/v final concentration) was added directly to cells.
(§1) Rat H4IIE hepatoma cells (American Type Culture Collection, CRL 1548) were cultured following the method disclosed by Yau et al., (1998, Eur. J. Biochem. 253: 91-1). The H4IIE cells were maintained in α-modified Eagle's media containing 10% FBS, 2 mM glutamine, 25 μg·mL^−1 streptomycin and 25 units·mL^−1 penicillin. Cells were plated and grown to 70% confluence. All cells were placed into serum-free medium for 72 h before addition of stimulating agents to ensure entry into a quiescent state.
(§2) Cultures of quiescent H4IIE cells or quiescent FAO cells were placed into 12-well culture dishes containing 2 mL serum-free medium, and then stimulated by direct addition of the inhibitors listed in Table 1 (volumes of additions were 10 μL or less) without replacing the medium. […] The cells in 12-well culture dishes were incubated with stimulating agents for 6 minutes and rinsed with phosphate buffered saline (PBS; 0.9% NaCl, 0.1 M Na3PO4, pH 7.1).
(§3) Cellular protein extracts were prepared by addition of 200 μL 2×SDS/gel loading buffer (0.125 M Tris pH 6.8, 2% SDS, 10% glycerol) to H4IIE cells in 12-well culture dishes. The samples were briefly sonicated, and protein content measured using the BCA protein assay kit. Aliquots containing equal amounts of protein were mixed with bromophenol blue (0.5% (w/v) final concentration) and 2-mercaptoethanol (5% (v/v) final concentration), heated at 95° C. and loaded onto 7.5% or 10% polyacrylamide gels. […] Primary antibodies (diluted 1:1000 in 3% (w/v) BSA) were incubated with the membrane for 60 min at 22° C. Membranes were subsequently washed four times and incubated for an additional 60 min at 1 8-22° C. in 1% (w/v) BSA-TBST with diluted HRP-coupled secondary antibody (1:10 000). HRP was detected using the ECL chemiluminescent system after the membranes had been washed four times.
Quantification of data obtained on film (Kodak X-omat) was accomplished with a GS800 imaging densitometer (Bio-Rad Laboratories) under nonsaturating conditions with local background subtraction. Although multiple exposures were acquired to ensure the absence of film saturation, the experimental figures typically show longer exposures selected specifically for visual presentation and not necessarily used for data analysis. Graphical data are presented as means±SE for a minimum of three replicate samples. […]

[2] = system: Raf (Ser259); assay: Western blot of Raf phosphorylation in H4IIE cells; settings: 6 min, one experiment
Protocol: (§4) Tissue culture media, antibiotics, fetal bovine serum (FBS) and Nunc tissue culture plates were purchased from Invitrogen Canada Inc. (Burlington, Ontario, Canada, L7P 1A1). Insulin (Sigma-Aldrich Canada Ltd., Oakville, Ontario, Canada, L6H 6J8) was dissolved in water and added directly to cells at a concentration of 250 nM unless otherwise indicated. The BWE was prepared and analyzed as described in Example 1. Two μL of the BWE were added directly to cells unless otherwise indicated. This amount was chosen on the basis of equivalence to insulin. Myo-inositol (Sigma-Aldrich Canada Ltd.) and D-chiro-inositol (Industrial Research Ltd., Wellington, New Zealand) were dissolved in water at an equal concentration to the amounts present in the BWE (Table 3) and 2 μL of each solution (0.1% v/v final concentration) was added directly to cells.
as §1, §2, §3
(§5) Quantification of data obtained on film (Kodak X-omat) was accomplished with a GS800 imaging densitometer (Bio-Rad Laboratories) under nonsaturating conditions with local background subtraction. Although multiple exposures were acquired to ensure the absence of film saturation, the experimental figures typically show longer exposures selected specifically for visual presentation and not necessarily used for data analysis. Graphical data are presented as means±SE for a minimum of three replicate samples.

[3] = system: PDK-1 (Ser241); assay: Western blot of PDK-1 phosphorylation in H4IIE cells; settings: 6 min, one experiment
Protocol: as §4, §1, §2, §3, §5

[4] = system: H4IIE cells; assay: 3H-deoxyglucose uptake by H4IIE cells; settings: H4IIE cells; pre-incubated with inhibitor, then insulin
Protocol: Tissue culture media, antibiotics, fetal bovine serum (FBS) and Nunc tissue culture plates were purchased from Gibco-BRL (division of Invitrogen Canada Inc.). Insulin (Sigma-Aldrich Canada Ltd.) was dissolved in water and added directly to cells at a final concentration of 10^−6 M. The buckwheat extract was prepared and analyzed as in Example 1. Two μL of the buckwheat extract were added directly to cells unless otherwise indicated. Myo-inositol (Sigma Aldrich Canada Ltd.) and D-chiro-inositol (Industrial Research Ltd.) were dissolved in water at an equal concentration to the amounts present in the BWE (Table 3) and 2 μL of each solution was added directly to cells.
as §1, with “as described in Example 3. Briefly,” for “following the method disclosed by Yau et al., (1998, Eur. J. Biochem. 253: 91-1). The H4IIE”, “50” for “25”, “50 μg·mL^−1” for “25 units·mL^−1”
^3H-deoxyglucose uptake was assayed using the method disclosed by Harrison et al. (1990, J. Biol. Chem. 265(10):5793-5801). Quiescent H4IIE cells, in 24-well culture dishes containing 1 mL serum-free medium, were washed three times with physiological salt solution (PSS) ([…], pH 7.4). Cells were placed into 0.5 mL PSS and pre-incubated with inhibitors for 10 minutes prior to the 20 minute stimulation with treatments (insulin, BWE, D-CI, MI). For all experiments, insulin was added at a concentration of 10^−6 M whereas 2 μL volumes of the BWE, D-CI, or MI (0.4% v/v final concentration) were added to cells unless otherwise indicated in figures. Sugar uptake was initiated by the addition of ^3H-deoxyglucose to a final assay concentration of 0.1 mM glucose (1 mCi/mL) and the cells were subsequently incubated for 5 minutes at 37° C. After two rapid washes with ice-cold PSS (0.5-1 mL/well), the cells were solubilized with 0.4 mL of 0.1% SDS, and ^3H was detected in 3 mL of EcoLume scintillant (MP Biomedicals Inc., Costa Mesa, Calif., USA, 92626).
Statistical significance between treatments was determined by one-way ANOVA and by Duncan's multiple range test for means testing (SAS v.9.1, SAS Institute Inc., Cary, N.C.). […] Data are expressed as the mean±SE.
Since insulin has the same effect, we compared the ability of BWE, insulin and two insulin-mimetic compounds (D-CI and MI) to stimulate glucose uptake by H4IIE hepatoma cells. […] Radio-labelled deoxyglucose was added to the medium and glucose uptake was determined by the detection of ^3H in cells.
Fractions (˜1.0 ml) from each solvent extraction were collected and assayed for their effects on MAPK activation as described in Example 3. The effects of selected fractions, alone or in combination with insulin, on the uptake of labelled glucose were assessed following the methods described in Example 4. […] The effects of the solvent fractions on H4IIE cells were assessed with 20-min exposure periods after which, sugar uptake was initiated by the addition of ^3H-deoxyglucose to a final assay concentration of 0.1 mM glucose (1 mCi/mL) and the cells were subsequently incubated for 5 minutes at 37° C. After two rapid washes with ice-cold PSS (0.5-1 mL/well), the cells were solubilized with 0.4 mL of 0.1% SDS, and ^3H was detected in 3 mL of EcoLume scintillant. […]

[5] = BWE-stimulated, 15-min preincubation with the inhibitor (None = BWE alone)
[6] = insulin-stimulated, 15-min preincubation with the inhibitor (None = insulin alone)
[7] = BWE treatment, 15-min preincubation with PKA/PKC inhibitor (None = BWE alone)
[8] = insulin treatment, 15-min preincubation with PKA/PKC inhibitor (None = insulin alone)

Compound | effect of the inhibitor on insulin- and BWE-stimulated phosphorylation of MAPK [1] | Raf (Ser259) phosphorylation, stimulation (fold) relative to the control [2, 5] [fold] | Raf (Ser259) phosphorylation, stimulation (fold) relative to the control [2, 6] [fold] | PDK-1 (Ser241) phosphorylation, stimulation (fold) relative to the control [3, 5] [fold] | PDK-1 (Ser241) phosphorylation, stimulation (fold) relative to the control [3, 6] [fold] | p42/44 P-MAPK (Thr202/Tyr204) phosphorylation, stimulation (fold) relative to the control [1, 5] [fold] | p42/44 P-MAPK (Thr202/Tyr204) phosphorylation, stimulation (fold) relative to the control [1, 6] [fold] | phosphorylation of MAPK, stimulation (fold) relative to the control (Table 6) [1, 7] [fold] | phosphorylation of MAPK, stimulation (fold) relative to the control (Table 6) [1, 8] [fold] | other results
C[C@H]1CCC/C=C/[C@@H]2C[C@H](O)C[C@H]2[C@H](O)/C=C/C(=O)O1 [brefeldin, Brefeldin A] | not involved in this process | – | – | – | – | – | – | – | – | –
COc1ccc2c(c1)CC[C@@H]1[C@@H]2CC[C@]2(C)[C@@H](NCCCCCCN3C(=O)C=CC3=O)CC[C@@H]12 [U73] | – | 0.12 | 0.99 | 0.49 | 2.30 | 8.6 | 13.4 | – | – | –
CC(C)(C)c1cc(C=C(C#N)C#N)cc(Br)c1O [AG1024] | – | – | 0.26 | – | 2.30 | – | 16.74 | – | – | –
Cc1ccc(-c2nn(C(C)(C)C)c3ncnc(N)c23)cc1 [PP1] | required for stimulation of MAPK by the BWE only | – | – | – | – | – | – | – | – | –
COc1ccc2c(c1)c1c3c(c4c5ccccc5n(C)c4c1n2CC(O)CN(C)C)C(=O)NC3=O (stereo not shown) [Go7874] | – | – | – | – | – | – | – | 3.10 | 2.60 | –
CC(=O)c1c(O)c(C)c(O)c(Cc2c(O)c3c(c(C(=O)/C=C/c4ccccc4)c2O)OC(C)(C)C=C3)c1O [Rottlerin] | – | – | – | – | – | – | – | 3.85 | 2.46 | –
Cn1c2ccccc2c2c3c(c4c5ccccc5n(CCC#N)c4c21)CNC3=O [Go6976] | – | – | – | – | – | – | – | 4.32 | 4.68 | –
N#C/C(=C/c1ccc(O)c(O)c1)C(=O)NCc1ccccc1 [AG490] | – | 0.16 | 0.13 | 0.89 | 1.91 | 12.9 | 16.4 | – | – | –
O=c1cc(N2CCOCC2)oc2c(-c3ccccc3)cccc12 [LY294002] | – | 0.08 | 0.22 | 0.61 | 1.40 | 13.1 | 10.4 | – | – | –
1-butanol | required for stimulation of MAPK by insulin and the BWE | – | – | – | – | – | – | – | – | effect of the inhibitor on insulin-stimulated glucose uptake (FIG. 23) [4]: decreased insulin-stimulated glucose uptake although the effect was not significant
